Where two headings read alike, the source gives them in different places.
Experiments:
[1] = Stability in DMSO and cathepsin L assay buffer; assay type: physicochemical
Text: Some variability in IC50 values determined for Compound (iii) prompted us to explore the stability of both Compound No. 1 and Compound (iii) in solvents relevant to the bioassay.

zebrafish = assay: Zebrafish live organism toxicity assay; details: at 100 μM
[2] = biological target: T1, Papain from Carica papaya (Carica papaya, UniProt P00784); assay: Selectivity assay, papain; assay type: biochemical; details: for IC50: Papain, no preincubation
T1 construct: Papain from Carica papaya (Calbiochem 5125, 11 ng/mL); purchased Calbiochem 5125; host or cells: Carica papaya
T1 sequence (P00784 134-345): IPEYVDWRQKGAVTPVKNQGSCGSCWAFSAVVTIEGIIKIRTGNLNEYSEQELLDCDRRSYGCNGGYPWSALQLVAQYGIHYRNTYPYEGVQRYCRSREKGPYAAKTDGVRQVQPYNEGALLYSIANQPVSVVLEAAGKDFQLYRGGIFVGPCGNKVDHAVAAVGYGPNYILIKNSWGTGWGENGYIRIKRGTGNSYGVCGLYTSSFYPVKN
Protocol: (§1) Compound No. 1 was assayed for inhibition against papain and cathepsins B, G, K, S, and V. Papain from Carica papaya (Calbiochem 5125, 11 ng/mL), human cathepsin K (Calbiochem 342001, 35 ng/mL), human spleen cathepsin S (Calbiochem 219344, 40 ng/mL), and human cathepsin V (Calbiochem 219467, 39 ng/ml) were assayed using Z-Phe-Arg-AMC substrate at 20 μM, 20 μM, 15 μM, and 1 μM, respectively. Human liver cathepsin B (Calbiochem 219362, 65 ng/mL) was assayed using 15 μM Z-Arg-Arg-AMC substrate (Bachem I-1135). Human neutrophil cathepsin G (Calbiochem 219373, 4.2 μg/mL) was assayed using 15 μM Suc-Ala-Ala-Pro-Phe-AMC substrate (Sigma S9761). All reactions were performed in 20 mM sodium acetate buffer containing 5 mM cysteine and 1 mM EDTA, pH 5.5. Reaction progress was monitored using the Envision microplate reader. IC50 values were measured in triplicate.

Plasmodium falciparum = assay: Malaria assay, in vitro propagation; assay type: cell-based; details: read-out: IC50 against Plasmodium falciparum
Protocol: Eight two-fold serial dilutions of Compound No. 1 in RPMI 1640 media (Invitrogen 1 1 875) containing L-Glutamine, 50 mg/L hypoxanthine, 6 g/L HEPES, 0.5% Albumax 11 bovine serum (Invitrogen 11021), 0.225% sodium bicarbonate, and 1 pgIrnL gentamicin were performed in Corning 3704 microplates. […] In addition, 30 μL normal red blood cells and 30 μL infected red blood cells were added to two control columns containing 10 μL media. The plates were incubated at 37° C. in a 92% humidity chamber with 5% CO2, 5% O2, and 90% N2 for 48 hours to allow for two cycles of red blood cell rupture and invasion to take place. Forty μL BrightGlo™ (Promega E2610) were added to each well and centrifuged. After 5 minutes, luminescence was measured using the Envision microplate reader.

human cathepsin L [3] = biological target: T2, human cathepsin L (Homo sapiens, UniProt P07711); assay: Nonlinear regression of transient kinetics (data fitting)
T2 sequence (P07711 114-288 limits assumed): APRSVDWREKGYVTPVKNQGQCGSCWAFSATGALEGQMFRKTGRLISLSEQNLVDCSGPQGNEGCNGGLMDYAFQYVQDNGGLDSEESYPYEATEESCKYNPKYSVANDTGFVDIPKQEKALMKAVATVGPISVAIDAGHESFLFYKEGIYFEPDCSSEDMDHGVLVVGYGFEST
T2 sequence (P07711 292-333 limits assumed): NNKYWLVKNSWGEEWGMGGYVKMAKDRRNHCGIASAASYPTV

human cathepsin L [4] = biological target: T2, human cathepsin L; assay: Reversibility, preincubation/dilution assay; assay type: biochemical; design: 8.7 ng/mL human liver cathepsin L (Calbiochem 219402); purchased Calbiochem 219402; host or cells: human liver
Protocol: This mixture was then diluted 100-fold in a Corning 3650 96-well plate with assay buffer containing 1 μM Z-Phe-Arg-AMC to a final volume of 200 μL. A rapidly reversible inhibitor should dissociate from the enzyme to restore approximately >90% of enzymatic activity. Fluorescence intensities of the 200 μL reaction wells were monitored continuously for AMC hydrolysis on the Envision plate reader.
The mechanism of inhibition, to determine whether the compound acted as a rapidly reversible, slowly reversible, or irreversible inhibitor, was evaluated using a preincubation/dilution assay (Copeland, 2005, Evaluation of Enzyme Inhibitors in Drug Discovery: A Guide for Medicinal Chemists and Pharmacologists, J. Wiley, Hoboken, N.J.). […] After 8820 s, the rate of product formation for the 4 hour preincubated reaction was 4.7 times greater than the initial rate of product formation, showing that the inhibitor was being released from the enzyme-inhibitor complex and enzymatic activity was indeed recovering.

human cathepsin V = biological target: T3, human cathepsin V (Homo sapiens, UniProt O60911); assay: Selectivity assay, cathepsin V; assay type: biochemical
T3 construct: purchased Calbiochem 219467
T3 sequence (O60911 114-334): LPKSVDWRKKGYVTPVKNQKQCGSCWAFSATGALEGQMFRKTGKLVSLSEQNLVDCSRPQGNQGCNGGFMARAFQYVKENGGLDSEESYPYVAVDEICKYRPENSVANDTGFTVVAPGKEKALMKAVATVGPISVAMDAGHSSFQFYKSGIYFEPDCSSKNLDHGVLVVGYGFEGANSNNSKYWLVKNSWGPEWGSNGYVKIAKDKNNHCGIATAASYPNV
Protocol: as §1

Human spleen cathepsin S = biological target: T4, Human spleen cathepsin S (Homo sapiens, UniProt P25774); assay: Cathepsin S assay, IC50 determination; assay type: biochemical
T4 construct: Human spleen cathepsin S (Calbiochem 219344, 40 ng/mL); purchased Calbiochem 219344; host or cells: human spleen
T4 sequence (P25774 115-331): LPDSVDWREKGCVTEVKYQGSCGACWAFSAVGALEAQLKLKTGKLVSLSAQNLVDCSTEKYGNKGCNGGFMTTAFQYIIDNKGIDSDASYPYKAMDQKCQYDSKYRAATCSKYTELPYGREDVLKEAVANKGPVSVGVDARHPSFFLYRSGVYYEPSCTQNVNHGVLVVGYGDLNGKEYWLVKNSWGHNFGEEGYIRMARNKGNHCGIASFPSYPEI
Procedure, shortened: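 Spleen cathepsin S (40 ng/mL) with 15 microM Z-Phe-Arg-AMC and liver cathepsin B (65 ng/mL) with 15 microM Z-Arg-Arg-AMC, in 20 mM sodium acetate, 1 mM EDTA, 5 mM cysteine, pH 5.5. AMC fluorescence release monitored; IC50 measured in triplicate.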

SMILES: CCc1ccccc1NC(=O)CSC(=O)NNC(=O)[C@H](Cc1c[nH]c2ccccc12)NC(=O)OC(C)(C)C [Compound No. 1]
- stability in DMSO ([1]; DMSO, room temperature): completely stable
- stability in cathepsin L assay buffer ([1]; NaOAc (20 mM), pH 5.5, EDTA (1 mM), cysteine (5 mM)): completely stable
- toxicity to zebrafish (zebrafish): lack of toxicity
- IC50 ([2]; IC50 @ 10 min, Carica papaya, 10 min): 6760 ± 367 nM
- Selectivity Index @ 10 min ([2]; Papain vs cathepsin L, 10 min): 44
- Selectivity Index @ 30 min ([2]; Papain vs cathepsin L, 30 min): 40
- Selectivity Index @ 60 min ([2]; Papain vs cathepsin L, 60 min): 46
- Selectivity Index @ 90 min ([2]; Papain vs cathepsin L, 90 min): 31
- Selectivity Index ([2]; Papain vs cathepsin L, over 10-90 min): 31-46
- IC50 ([2]; 30 min, read-out: IC50 @ 30 min): 2980 ± 282 nM
- IC50 ([2]; 60 min, read-out: IC50 @ 60 min): 2600 ± 208 nM
- IC50 ([2]; 90 min, read-out: IC50 @ 90 min): 1560 ± 314 nM
- IC50 (Plasmodium falciparum): 15400 ± 600 nM
- Ki (human cathepsin L [3]): 0.89 nM
- koff (human cathepsin L [3]): 2.2e-05 s⁻¹
- kon (human cathepsin L [3]): 24000 M⁻¹ s⁻¹
- enzymatic activity returned after 100-fold dilution (human cathepsin L [4]; 1 hour preincubation at 75 nM, 6000 s into the reaction): approximately 11%
- rate of product formation relative to initial rate (human cathepsin L [4]; 4 hour preincubated reaction, after 8820 s): 4.7 times
- reaction inhibited immediately after addition of substrate (human cathepsin L [4]; 4 hr preincubated enzyme-inhibitor): 99.8%
- mechanism of inhibition (reversibility) (human cathepsin L [4]; preincubation/dilution assay): very slowly reversible inhibitor
- IC50 (human cathepsin V): 1010 ± 142 nM
- Selectivity Index @ 10 min (human cathepsin V; Cathepsin V vs cathepsin L, 10 min): 7
- Selectivity Index @ 30 min (human cathepsin V; Cathepsin V vs cathepsin L, 30 min): 9
- Selectivity Index @ 60 min (human cathepsin V; Cathepsin V vs cathepsin L, 60 min): 11
- Selectivity Index @ 90 min (human cathepsin V; Cathepsin V vs cathepsin L, 90 min): 11
- Selectivity Index (human cathepsin V; Cathepsin V vs cathepsin L, over 10-90 min): 7-11
- IC50 (human cathepsin V; Cathepsin V, no preincubation, 30 min, read-out: IC50 @ 30 min): 688 ± 39 nM
- IC50 (human cathepsin V; Cathepsin V, no preincubation, 60 min, read-out: IC50 @ 60 min): 618 ± 35 nM
- IC50 (human cathepsin V; Cathepsin V, no preincubation, 90 min, read-out: IC50 @ 90 min): 576 ± 24 nM
- Selectivity Index @ 10 min (Human spleen cathepsin S; Cathepsin S vs cathepsin L, 10 min): 7
- Selectivity Index @ 30 min (Human spleen cathepsin S; Cathepsin S vs cathepsin L, 30 min): 10
- Selectivity Index @ 60 min (Human spleen cathepsin S; Cathepsin S vs cathepsin L, 60 min): 13
- Selectivity Index @ 90 min (Human spleen cathepsin S; Cathepsin S vs cathepsin L, 90 min): 14
- Selectivity Index (Human spleen cathepsin S; Cathepsin S vs cathepsin L, over 10-90 min): 7-14
- IC50 (Human spleen cathepsin S; Cathepsin S, no preincubation, 30 min, read-out: IC50 @ 30 min): 745 ± 10 nM
- IC50 (Human spleen cathepsin S; Cathepsin S, no preincubation, 60 min, read-out: IC50 @ 60 min): 724 ± 11 nM
- IC50 (Human spleen cathepsin S; Cathepsin S, no preincubation, 90 min, read-out: IC50 @ 90 min): 721 ± 29 nM
- IC50 (Human spleen cathepsin S; IC50 @ 10 min, Cathepsin S, human spleen, no preincubation, 10 min): 1110 ± 134 nM
- IC50 (Human spleen cathepsin S; Table 1, read-out: IC50 Cat S): 960 nM

— patent publication US20110207726A1, “Inhibitors of Human Cathepsin L, Cathepsin B, and Cathepsin S” (The Trustees of the University of Pennsylvania, priority 2008, published 2011)
